Source: patent US11234954B2, “Low-dose doxepin for treatment of sleep disorders in elderly patients” (Pernix Sleep, Inc., priority 2006, dated 2022)
Where two headings read alike, the source gives them in different places.

How the values were obtained:
[1] = test system: primary elderly insomnia patients with sleep maintenance difficulties; assay type: in vivo, human
Procedure: Subjects were females and males, 65 years of age or older, with at least a 3-month history of primary insomnia (as defined in the Diagnostic and Statistical Manual of Mental Disorders, Fourth Edition, Text Revision), who reported experiencing at least 60 minutes of Wake After Sleep Onset (WASO), at least 30 minutes of Latency to Sleep Onset (LSO), and no more than 6.5 hours of Total Sleep Time (TST) on at least 4 of 7 consecutive nights prior to PSG Screening.
Primary Efficacy Variable: The primary efficacy variable was WASO on Night 1.
Additional PSG Variables: Additional efficacy variables assessed on each PSG recording night during the Double-blind Treatment Period were WASO (Night 15, Night 29, Night 57, and Night 85); WTDS; TST; Sleep Efficiency (SE) overall, by third of the night, the last quarter of the night, and hour of the night; LPS; Latency to Stage 2 Sleep; Number of Awakenings After Sleep Onset (NAASO) overall and by hour; Total Wake Time (TWT) overall and by hour; Wake Time After Sleep (WTAS); and sleep architecture (including percentage and minutes of Stage 1, 2, and 3-4 sleep; percentage and minutes of rapid eye movement [REM] and non-REM sleep; and Latency to REM Sleep.)

[2] = test system: Adult Patients (Ages 18-64) with Primary Insomnia; test: PSG efficacy, four-period crossover dose-response study in adults 18-64 (Example 3); assay type: in vivo, human; conditions: for LPS, Mean / SE, Mean / TST, Mean / WASO, Mean / WTAS, Mean: Per-Protocol N = 61; for WTDS, observed mean (±SD) (primary efficacy variable): WTDS typically expressed in minutes
Source text: (§1) The primary and secondary efficacy assessments were as described above in Example 1.

[3] = test system: patients aged 65 years or older with primary sleep maintenance insomnia; test: Subjective sleep data, elderly crossover study (Example 1); assay type: in vivo, human; conditions: n = 71
Source text: “sWASO” refers to subjective wake after sleep onset (WASO).
“sTST” refers to subjective total sleep time.
“sNAASO” refers to subjective NAASO.
“LSO” refers to “latency to sleep onset, typically expressed in minutes.
The patients report subjected data, which were consistent with the PSG data.

[4] = test system: primary elderly insomnia patients with sleep maintenance difficulties; test: Safety and TEAEs, Phase III elderly study (Example 2)
Procedure: A phase III, randomized, double-blind, placebo-controlled, parallel-group, multicenter study was conducted to assess the long term efficacy and safety of two dose levels of doxepin HCl, 1 mg and 3 mg, in primary elderly insomnia patients with sleep maintenance difficulties.
Doxepin 1 mg tablets or 3 mg tablets (lot number 3044567) were administered as a single oral dose for 85 consecutive nights during the 12-week Double-blind Treatment Period.

[5] = test system: patients aged 65 years or older with primary sleep maintenance insomnia; test: Adverse events and safety, elderly crossover study (Example 1); assay type: in vivo, human
Source text: All randomized patients who received at least one dose of double-blind study medication were included in the safety analyses, which were based on observed data.
The adverse events are arranged by system organ class.

[6] = test system: Adult Patients (Ages 18-64) with Primary Insomnia; test: Adverse events and safety, adult crossover study (Example 3); assay type: in vivo, human
Procedure: A randomized, multi-center, double-blind, placebo-controlled, four-period crossover, dose-response study was designed to assess the effects of doxepin (1 mg, 3 mg and 6 mg) compared with placebo in patients with primary sleep maintenance insomnia.
Patients who qualified for study entry, based on the screening PSG assessments, were randomized to a treatment sequence using a Latin square design. A final study visit was performed for patients either after completion of the four treatment periods or upon discontinuation from the study. Efficacy assessments were made at each visit and safety assessments were performed throughout the study.
The main inclusion criteria were male and/or female patients, aged 18 to 64 years, in good general health with at least a 3-month history of DSM-IV-defined primary insomnia, reporting each of the following on four of seven nights prior to PSG screening: ≤6.5 hours of total sleep time (TST), ≥60 min of WASO and ≥20 min of LSO. Doxepin HCl 1 mg, 3 mg and 6 mg capsules, and placebo capsules, were provided as a single dose for oral administration.

[7] = test system: Adult Patients (Ages 18-64) with Primary Insomnia; test: Subjective sleep parameters, adult crossover study (Example 3); assay type: in vivo, human; conditions: Per-Protocol N = 61
Source text: as §1

## CN(C)CCC=C1c2ccccc2COc2ccccc21 (mixture of isomers) [Doxepin]
[1]; Night 1, 1 mg
  LS mean WASO shorter compared with the placebo group: 17.8 min
[1]; Night 1, 1 mg, ITT N = 77
  LPS, mean (SD): 38.8 (29.58) minutes
  SE Overall, mean (SD): 74.8 (11.05) %
  TST, mean (SD): 359.1 (53.05) minutes
  WTAS, mean (SD): 8.9 (18.84) minutes
[1]; Night 1, 1 mg, ITT n = 77
  WASO, Diff. of LS Mean versus placebo: -17.8 min
  WASO, Mean (Primary Efficacy Variable): 91.8 min
[1]; Night 1, 3 mg
  LS mean WASO shorter compared with the placebo group: 33.8 min
[1]; Night 1, 3 mg, ITT N = 82
  LPS, mean (SD): 28.6 (20.53) minutes
  SE Overall, mean (SD): 79.8 (9.21) %
  TST, mean (SD): 382.9 (44.23) minutes
  WTAS, mean (SD): 4.7 (14.61) minutes
[1]; Night 1, 3 mg, ITT n = 82
  WASO, Diff. of LS Mean versus placebo: -33.8 min
  WASO, Mean (Primary Efficacy Variable): 74.5 min
[1]; Night 85, 1 mg, ITT N = 77
  LPS, mean (SD): 29.0 (26.45) minutes
  SE Overall, mean (SD): 75.1 (9.83) %
  TST, mean (SD): 360.5 (47.17) minutes
  WTAS, mean (SD): 10.8 (21.78) minutes
[1]; Night 85, 1 mg, ITT n = 69
  WASO, Diff. of LS Mean versus placebo: -14.6 min
  WASO, Mean: 97.0 min
[1]; Night 85, 3 mg, ITT N = 82
  LPS, mean (SD): 37.5 (32.74) minutes
  SE Overall, mean (SD): 77.9 (8.80) %
  TST, mean (SD): 373.7 (42.24) minutes
  WTAS, mean (SD): 5.4 (13.20) minutes
[1]; Night 85, 3 mg, ITT n = 74
  WASO, Diff. of LS Mean versus placebo: -33.2 min
  WASO, Mean: 75.7 min
[2]; 1 mg
  LPS, Mean: 30.1 min
  SE, Mean: 84.7%
  TST, Mean: 406.5 min
  WASO, Mean: 47.3 min
  WTAS, Mean: 4.1 min
  WTDS, observed mean (±SD) (primary efficacy variable): 43.2 (28.2)
[2]; 3 mg
  LPS, Mean: 30.8 min
  SE, Mean: 86.5%
  TST, Mean: 415.2 min
  WASO, Mean: 38.6 min
  WTAS, Mean: 5.2 min
  WTDS, observed mean (±SD) (primary efficacy variable): 33.4 (21.87)
[2]; 6 mg
  LPS, Mean: 27.9 min
  SE, Mean: 86.9%
  TST, Mean: 417.2 min
  WASO, Mean: 38.8 min
  WTAS, Mean: 2.5 min
  WTDS, observed mean (±SD) (primary efficacy variable): 35.3 (25.17)
[3]; 1 mg
  LSO, Mean (SD): 42.3 (32.1)
  Sleep Quality, Mean (SD): 0.8 (1.0)
  sNAASO, Mean (SD): 3.2 (2.1)
  sTST, Mean (SD): 355.7 (63.1)
  sWASO, Mean (SD): 74.3 (55.2)
[3]; 3 mg
  LSO, Mean (SD): 42.4 (40.1)
  Sleep Quality, Mean (SD): 0.9 (1.0)
  sNAASO, Mean (SD): 2.9 (1.7)
  sTST, Mean (SD): 362.4 (64.3)
  sWASO, Mean (SD): 72.2 (56.4)
[3]; 6 mg
  LSO, Mean (SD): 33.9 (24.8)
  Sleep Quality, Mean (SD): 0.8 (1.0)
  sNAASO, Mean (SD): 3.0 (1.4)
  sTST, Mean (SD): 369.4 (65.3)
  sWASO, Mean (SD): 71.5 (57.4)
[4]; 1 mg and 3 mg
  deaths during the study or within 30 days following last dose: no reported deaths
[4]; 1 mg, N = 77
  Infections and Infestations, subjects (%): 12 (16%)
  Upper respiratory tract infection, subjects (%): 2 (3%)
  Urinary tract infection, subjects (%): 2 (3%)
[4]; 3 mg, N = 82
  Infections and Infestations, subjects (%): 11 (13%)
  Upper respiratory tract infection, subjects (%): 1 (1%)
  Urinary tract infection, subjects (%): 0 (0%)
[5]; 1 mg, N = 74
  HEADACHE: Number of Events: 0
  HEADACHE: Number of Patients: 0 (0%)
[5]; 3 mg, N = 75
  HEADACHE: Number of Events: 0
  HEADACHE: Number of Patients: 0 (0%)
[5]; 6 mg, N = 74
  HEADACHE: Number of Events: 0
  HEADACHE: Number of Patients: 0 (0%)
[6]; 1 mg, N = 66
  HEADACHE: Number of Events: 3
  HEADACHE: Number of Patients: 3 (5%)
  NASAL CONGESTION: Number of Events: 1
  NASAL CONGESTION: Number of Patients: 1 (2%)
[6]; 3 mg, N = 66
  HEADACHE: Number of Events: 0
  HEADACHE: Number of Patients: 0 (0%)
  NASAL CONGESTION: Number of Events: 0
  NASAL CONGESTION: Number of Patients: 0 (0%)
[6]; 6 mg, N = 67
  HEADACHE: Number of Events: 1
  HEADACHE: Number of Patients: 1 (1%)
  NASAL CONGESTION: Number of Events: 0
  NASAL CONGESTION: Number of Patients: 0 (0%)
[7]; 1 mg
  LSO, Mean: 46.9 min
  sTST, Mean: 364.2 min
  sWASO, Mean: 56.1 min
[7]; 3 mg
  LSO, Mean: 46.1 min
  sTST, Mean: 379.7 min
  sWASO, Mean: 50.5 min
[7]; 6 mg
  LSO, Mean: 44.1 min
  sTST, Mean: 383.0 min
  sWASO, Mean: 42.1 min
